Literature values as cited in patent US20240285565A1, “USE OF (S)-3-AMINO-4-(DIFLUOROMETHYLENYL)CYCLOPENT-1-ENE-1-CARBOXYLIC ACID IN THE TREATMENT OF DIABETES AND PRE-DIABETES” (Ovid Therapeutics Inc., priority 2023, published 2024).

Tests used:
[1] = system: alanine aminotransferase (Ala-AT)
[2] = system: aspartate aminotransferase (Asp-AT)
OAT = molecular target: T1, OAT (Homo sapiens, UniProt P04181)
T1 sequence (P04181 26-439): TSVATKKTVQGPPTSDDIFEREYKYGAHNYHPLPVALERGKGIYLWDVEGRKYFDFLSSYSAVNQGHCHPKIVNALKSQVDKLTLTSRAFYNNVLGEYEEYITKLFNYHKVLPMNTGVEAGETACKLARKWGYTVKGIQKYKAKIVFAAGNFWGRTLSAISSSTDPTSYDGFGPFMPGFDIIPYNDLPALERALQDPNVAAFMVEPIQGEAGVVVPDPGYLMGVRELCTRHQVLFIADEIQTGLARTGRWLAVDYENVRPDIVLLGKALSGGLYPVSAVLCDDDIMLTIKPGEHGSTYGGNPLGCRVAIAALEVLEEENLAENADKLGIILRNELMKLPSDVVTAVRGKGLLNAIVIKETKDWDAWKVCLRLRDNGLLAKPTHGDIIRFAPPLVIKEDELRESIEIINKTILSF

Compound	inactivation or inhibition of Ala-AT ([1]; result in words)	inactivation or inhibition of Asp-AT ([2]; result in words)	Ki (OAT; read-out: K1 (OAT)) [µM]	IC50 ([1]; reversible inhibition) [µM]	IC50 ([2]; reversible inhibition) [µM]	Kinact/K1 (OAT) (OAT) [M⁻¹ s⁻¹]	times more efficient an inactivator of OAT than CPP-115 (OAT; ratio of Kinact/K1 relative to CPP-115) [times]
N[C@H]1C[C@@H](C(=O)O)CC1=C(F)F [CPP-115, (1S,3S)-3-amino+difluoromethylenyl-1-cyclopentanoic acid, reference compound]	not to inactivate or inhibit	not to inactivate or inhibit	116				
N[C@H]1C=C(C(=O)O)CC1=C(F)F [(S)-3-amino-4-(difluoromethylenyl)cyclopent-1-ene-1-carboxylic acid]				> 4000	> 4000	127	9.0
